Measured values as given in patent publication US20210038607A1, “OXADIAZOLYLTHIOPHENE DERIVATIVES USEFUL AS HISTONE DEACETYLASE INHIBITORS” (Karus Therapeutics Limited, priority 2018, published 2021).

Assays:
[1] = target: T1, Human HDAC10 (Homo sapiens, UniProt Q969S8); experiment: HDAC10 biochemical assay, AMC-labeled peptide substrate; conditions: read-out: HDAC Isoform IC50 (nM) 10
T1 construct: Human HDAC10 (a.a. 1-481); GST (N); His (C); host or cells: baculovirus expression system
T1 sequence (Q969S8 1-481): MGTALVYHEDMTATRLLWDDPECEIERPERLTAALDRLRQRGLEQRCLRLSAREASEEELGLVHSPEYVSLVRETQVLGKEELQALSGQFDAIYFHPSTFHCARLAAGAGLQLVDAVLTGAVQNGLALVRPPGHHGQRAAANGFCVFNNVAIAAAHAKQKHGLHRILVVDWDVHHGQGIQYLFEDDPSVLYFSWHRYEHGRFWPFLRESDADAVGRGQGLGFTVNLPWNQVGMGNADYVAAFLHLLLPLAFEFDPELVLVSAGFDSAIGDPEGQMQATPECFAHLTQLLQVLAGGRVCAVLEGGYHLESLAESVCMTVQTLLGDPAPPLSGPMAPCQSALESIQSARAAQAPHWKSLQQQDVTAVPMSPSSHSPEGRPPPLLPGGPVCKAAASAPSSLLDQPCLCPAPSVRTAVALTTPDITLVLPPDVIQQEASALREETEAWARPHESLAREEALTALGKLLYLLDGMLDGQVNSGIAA
In short: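 Baculovirus-expressed GST/His-tagged human HDAC10 (aa 1-481), 12 ng/ul, incubated with 50 μM RHKK(Ac)AMC in Tris pH 8.0 buffer with BSA and 1% DMSO, 2 h at 30 °C. Developer then releases AMC, read at 360/460 nm.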

[2] = target: T2, Human HDAC2 (Homo sapiens, UniProt Q92769); experiment: HDAC2 biochemical assay, AMC-labeled peptide substrate; conditions: read-out: HDAC Isoform IC50 (nM) 2
T2 construct: full length with C-terminal GST-tag; GST (C); host or cells: baculovirus expression system
In short: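 Full-length human HDAC2 with C-terminal GST tag, baculovirus-expressed, at 0.07 ng/ul with 50 μM RHKK(Ac)AMC substrate in Tris-HCl pH8.0 buffer with BSA, 1% DMSO final. Incubated 1 hour at 30° C with compounds, then developer added; fluorescence read at 360/460 Ex/Em.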

[3] = target: T3, Human HDAC1 (Homo sapiens, UniProt Q13547); experiment: HDAC1 biochemical assay, AMC-labeled peptide substrate; conditions: read-out: HDAC Isoform IC50 (nM) 1
T3 construct: full length with C-terminal His-tag and C-terminal FLAG-tag; His (C); FLAG (C); host or cells: baculovirus expression system
In short: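 Baculovirus-expressed full-length human HDAC1 with His and FLAG tags, 0.3 ng/ul, incubated 1 h at 30° C with compound and 50 μM RHKK(Ac)AMC in Tris pH 8.0 buffer with BSA and 1% DMSO. Developer then releases AMC from deacetylated substrate; fluorescence read at 360/460 nm.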

[4] = target: T4, Human HDAC5 (Homo sapiens, UniProt Q9UQL6); experiment: HDAC5 biochemical assay, class IIa-specific substrate; conditions: read-out: HDAC Isoform IC50 (nM) 5
T4 construct: full length with C-terminal His tag, MW=51.1 kDa; His (C); host or cells: baculovirus expression system
In short: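 Full-length C-terminal His-tagged HDAC5 from baculovirus (0.05 ng/ul) incubated 30 min at room temperature with 50 μM Boc-Lys(trifluoroacetyl)-AMC and compound, Tris pH 8.0 buffer with BSA, 1% DMSO. Developer then releases AMC; fluorescence 360/460 nm.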

[5] = target: T5, Complex of human HDAC3 and human NCOR2 (Homo sapiens, UniProt O15379); experiment: HDAC3 biochemical assay, AMC-labeled peptide substrate; conditions: read-out: HDAC Isoform IC50 (nM) 3
T5 construct: full length with C-terminal His tag, MW=49.7 kDa; His (C); host or cells: baculovirus expression system (co-expressed)
In short: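 Baculovirus-coexpressed His-tagged full-length HDAC3 with GST-NCOR2 (aa 395-489), 0.1 ng/ul, deacetylates 50 μM RHKK(Ac)AMC in Tris-HCl pH8.0 with BSA and 1% DMSO, 1 h at 30° C. Developer then cleaves deacetylated substrate; fluorescence read at 360/460 Ex/Em.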

T5 sequence (O15379 whole entry, canonical isoform): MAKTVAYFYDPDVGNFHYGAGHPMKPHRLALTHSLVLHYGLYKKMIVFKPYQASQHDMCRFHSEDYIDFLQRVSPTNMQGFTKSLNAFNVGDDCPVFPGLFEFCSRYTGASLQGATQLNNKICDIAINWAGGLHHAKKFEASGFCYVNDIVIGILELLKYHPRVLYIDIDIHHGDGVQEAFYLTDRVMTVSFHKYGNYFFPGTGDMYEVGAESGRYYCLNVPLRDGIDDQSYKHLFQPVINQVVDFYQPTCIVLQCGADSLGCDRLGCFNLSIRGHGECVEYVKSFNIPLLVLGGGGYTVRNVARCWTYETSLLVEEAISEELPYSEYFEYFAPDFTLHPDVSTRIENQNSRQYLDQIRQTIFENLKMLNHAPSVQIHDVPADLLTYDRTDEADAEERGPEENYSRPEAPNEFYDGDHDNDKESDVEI
T5 sequence (Q9Y618 395-489 partner limits assumed): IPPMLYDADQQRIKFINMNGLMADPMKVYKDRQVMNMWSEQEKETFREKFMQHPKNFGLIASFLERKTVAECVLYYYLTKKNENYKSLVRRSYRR
T2 sequence (Q92769 whole entry, canonical isoform): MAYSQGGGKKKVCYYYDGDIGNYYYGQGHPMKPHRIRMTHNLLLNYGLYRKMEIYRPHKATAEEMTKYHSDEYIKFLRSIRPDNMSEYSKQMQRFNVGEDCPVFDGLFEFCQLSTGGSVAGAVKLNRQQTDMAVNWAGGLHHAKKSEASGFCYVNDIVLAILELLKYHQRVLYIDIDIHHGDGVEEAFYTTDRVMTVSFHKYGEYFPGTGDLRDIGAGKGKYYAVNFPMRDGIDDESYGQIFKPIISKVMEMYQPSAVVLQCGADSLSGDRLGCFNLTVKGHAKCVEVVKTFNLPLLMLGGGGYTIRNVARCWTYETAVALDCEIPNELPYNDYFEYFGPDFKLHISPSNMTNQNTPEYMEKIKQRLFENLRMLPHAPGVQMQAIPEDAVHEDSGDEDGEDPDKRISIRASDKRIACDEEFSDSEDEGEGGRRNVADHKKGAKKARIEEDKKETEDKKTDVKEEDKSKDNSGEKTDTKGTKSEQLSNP
T4 sequence (Q9UQL6 656-1122 limits assumed): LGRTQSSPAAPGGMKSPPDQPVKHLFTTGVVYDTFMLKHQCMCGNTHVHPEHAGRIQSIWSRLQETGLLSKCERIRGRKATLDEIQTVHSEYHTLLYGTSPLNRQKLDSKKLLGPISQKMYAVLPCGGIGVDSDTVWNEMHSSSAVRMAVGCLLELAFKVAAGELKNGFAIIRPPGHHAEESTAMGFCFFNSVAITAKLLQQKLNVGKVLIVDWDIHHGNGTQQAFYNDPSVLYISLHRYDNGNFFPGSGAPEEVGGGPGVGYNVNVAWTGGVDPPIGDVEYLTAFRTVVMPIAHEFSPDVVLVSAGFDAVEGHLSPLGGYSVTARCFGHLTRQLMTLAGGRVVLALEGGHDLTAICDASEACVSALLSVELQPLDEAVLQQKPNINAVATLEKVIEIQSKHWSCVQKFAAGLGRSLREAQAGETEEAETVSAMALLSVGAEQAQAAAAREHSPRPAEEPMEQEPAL
T3 sequence (Q13547 whole entry, canonical isoform): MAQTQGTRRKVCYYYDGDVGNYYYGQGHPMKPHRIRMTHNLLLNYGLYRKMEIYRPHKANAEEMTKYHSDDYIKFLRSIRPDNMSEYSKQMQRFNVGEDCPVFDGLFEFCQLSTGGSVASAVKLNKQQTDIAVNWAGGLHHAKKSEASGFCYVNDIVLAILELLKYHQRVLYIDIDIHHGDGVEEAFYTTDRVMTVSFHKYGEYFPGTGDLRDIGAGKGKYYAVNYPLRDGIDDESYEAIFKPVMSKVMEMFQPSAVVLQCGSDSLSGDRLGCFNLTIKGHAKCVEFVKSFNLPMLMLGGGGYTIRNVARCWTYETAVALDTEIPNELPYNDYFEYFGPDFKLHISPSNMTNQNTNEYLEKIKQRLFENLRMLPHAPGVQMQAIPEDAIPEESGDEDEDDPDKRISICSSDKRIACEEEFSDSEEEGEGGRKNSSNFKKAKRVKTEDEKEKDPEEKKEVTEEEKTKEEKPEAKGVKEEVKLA

| SMILES | IC50 [1] [nM] | IC50 [2] [nM] | IC50 [3] [nM] | IC50 [4] [nM] | IC50 [5] [nM] |
| --- | --- | --- | --- | --- | --- |
| O=C(c1ccc(N(Cc2ccc(-c3noc(C(F)(F)F)n3)s2)c2cnccn2)nn1)N1CC(O)(C(F)(F)F)C1 [Example FK, 1-{6-[(Pyrazin-2-yl)({5-[5-(trifluoromethyl)-1,2,4-oxadiazol-3-yl]thiophen-2-yl}methyl)amino]pyridazine-3-carbonyl}-3-(trifluoromethyl)azetidin-3-ol] | > 10000 | > 10000 | > 10000 | ≤ 500 | ≤ 10000 |
| Cc1cnc(N(Cc2ccc(-c3noc(C(F)(F)F)n3)s2)c2cnccn2)cn1 [Example BH, 5-Methyl-N-(pyrazin-2-yl)-N-({5-[5-(trifluoromethyl)-1,2,4-oxadiazol-3-yl]thiophen-2-yl}methyl)pyrazin-2-amine] | > 10000 | > 10000 | ≤ 10000 | ≤ 1000 | > 10000 |
| CN1CCN(C(=O)c2cnnc(N(Cc3ccc(-c4noc(C(F)(F)F)n4)s3)c3cnccn3)c2)CC1 [Example EC, 5-(4-Methylpiperazine-1-carbonyl)-N-(pyrazin-2-yl)-N-({5-[5-(trifluoromethyl)-1,2,4-oxadiazol-3-yl]thiophen-2-yl}methyl)pyridazin-3-amine] | > 10000 | > 10000 | > 10000 | ≤ 10000 | > 10000 |
| O=C(c1cnnc(N(Cc2ccc(-c3noc(C(F)(F)F)n3)s2)c2cnccn2)c1)N1CCS(=O)(=O)CC1 [Example ED, 4-{6-[(Pyrazin-2-yl)({5-[5-(trifluoromethyl)-1,2,4-oxadiazol-3-yl]thiophen-2-yl}methyl)amino]pyridazine-4-carbonyl}-1λ^6-thiomorpholine-1,1-dione] | > 10000 | > 10000 | > 10000 | ≤ 1000 | > 10000 |
| COc1cnc(N(Cc2ccc(-c3noc(C(F)(F)F)n3)s2)c2cnccn2)cn1 [Example BI, 5-Methoxy-N-(pyrazin-2-yl)-N-({5-[5-(trifluoromethyl)-1,2,4-oxadiazol-3-yl]thiophen-2-yl}methyl)pyrazin-2-amine] | > 10000 | > 10000 | > 10000 | ≤ 10000 | > 10000 |
| FC(F)(F)c1nc(-c2ccc(CN(c3cnccn3)c3ncccn3)s2)no1 [Example AS, N-(Pyrimidin-2-yl)-N-({5-[5-(trifluoromethyl)-1,2,4-oxadiazol-3-yl]thiophen-2-yl}methyl)pyrazin-2-amine] | > 10000 | > 10000 | > 10000 | ≤ 1000 | > 10000 |
| O=C(c1ccc(N(Cc2ccc(-c3noc(C(F)(F)F)n3)s2)c2cnccn2)nn1)N1CCCC1 [Example FI, N-(Pyrazin-2-yl)-6-(pyrrolidine-1-carbonyl)-N-({5-[5-(trifluoromethyl)-1,2,4-oxadiazol-3-yl]thiophen-2-yl}methyl)pyridazin-3-amine] | > 10000 | > 10000 | ≤ 10000 | ≤ 500 | ≤ 10000 |
| O=C(c1cnnc(N(Cc2ccc(-c3noc(C(F)(F)F)n3)s2)c2cnccn2)c1)N1C[C@H]2C[C@@H]1CO2 [Example FW, 5-[(1R,4R)-2-Oxa-5-azabicyclo[2.2.1]heptane-5-carbonyl]-N-(pyrazin-2-yl)-N-({5-[5-(trifluoromethyl)-1,2,4-oxadiazol-3-yl]thiophen-2-yl}methyl)pyridazin-3-amine] | > 10000 | > 10000 | > 10000 | ≤ 1000 | ≤ 10000 |
| COC1CN(C(=O)c2cnnc(N(Cc3ccc(-c4noc(C(F)(F)F)n4)s3)c3cnccn3)c2)C1 [Example DZ, 5-(3-Methoxyazetidine-1-carbonyl)-N-(pyrazin-2-yl)-N-({5-[5-(trifluoromethyl)-1,2,4-oxadiazol-3-yl]thiophen-2-yl}methyl)pyridazin-3-amine] | > 10000 | > 10000 | > 10000 | ≤ 1000 | > 10000 |
| FC(F)(F)c1nc(-c2ccc(CN(c3cnccn3)c3ccc(CN4CCOCC4)nn3)s2)no1 [Example FN, 6-[(Morpholin-4-yl)methyl]-N-(pyrazin-2-yl)-N-({5-[5-(trifluoromethyl)-1,2,4-oxadiazol-3-yl]thiophen-2-yl}methyl)pyridazin-3-amine] | > 10000 | > 10000 | > 10000 | ≤ 1000 | > 10000 |

Other lines, results leading:

| IC50 [1] [nM] | IC50 [2] [nM] | IC50 [3] [nM] | IC50 [4] [nM] | IC50 [5] [nM] | SMILES |
| --- | --- | --- | --- | --- | --- |
| > 10000 | > 10000 | > 10000 | ≤ 10000 | > 10000 | O=C(c1nccnc1N(Cc1ccc(-c2noc(C(F)(F)F)n2)s1)c1cnccn1)N1CC(O)(C(F)(F)F)C1 [Example GQ, 1-{3-[(Pyrazin-2-yl)({5-[5-(trifluoromethyl)-1,2,4-oxadiazol-3-yl]thiophen-2-yl}methyl)amino]pyrazine-2-carbonyl}-3-(trifluoromethyl)azetidin-3-ol] |
| > 10000 | > 10000 | > 10000 | ≤ 10000 | > 10000 | NC(=O)c1nccnc1N(Cc1ccc(-c2noc(C(F)(F)F)n2)s1)c1cnccn1 [Example GO, 3-[(Pyrazin-2-yl)({5-[5-(trifluoromethyl)-1,2,4-oxadiazol-3-yl]thiophen-2-yl}methyl)amino]pyrazine-2-carboxamide] |
| > 10000 | > 10000 | > 10000 | ≤ 10000 | > 10000 | O=C(c1nccnc1N(Cc1ccc(-c2noc(C(F)(F)F)n2)s1)c1cnccn1)N1CCC1 [Example GP, 3-(Azetidine-1-carbonyl)-N-(pyrazin-2-yl)-N-({5-[5-(trifluoromethyl)-1,2,4-oxadiazol-3-yl]thiophen-2-yl}methyl)pyrazin-2-amine] |
| > 10000 | > 10000 | ≤ 10000 | ≤ 1000 | > 10000 | CC(C)(O)c1cnnc(N(Cc2ccc(-c3noc(C(F)(F)F)n3)s2)c2cnccn2)c1 [Example GS, 2-{6-[(Pyrazin-2-yl)({5-[5-(trifluoromethyl)-1,2,4-oxadiazol-3-yl]thiophen-2-yl}methyl)amino]pyridazin-4-yl}propan-2-ol] |
| > 10000 | > 10000 | > 10000 | ≤ 10000 | ≤ 10000 | O=C(c1cnnc(N(Cc2ccc(-c3noc(C(F)(F)F)n3)s2)c2cnccn2)c1)N1CC(C(F)(F)F)C1 [Example GJ, N-(Pyrazin-2-yl)-N-({5-[5-(trifluoromethyl)-1,2,4-oxadiazol-3-yl]thiophen-2-yl}methyl)-5-[3-(trifluoromethyl)azetidine-1-carbonyl]pyridazin-3-amine] |
| > 10000 | > 10000 | > 10000 | ≤ 10000 | > 10000 | FC(F)(F)c1nc(-c2ccc(CN(c3ccccn3)c3ccccn3)s2)no1 [Example U, N-(Pyridin-2-yl)-N-({5-[5-(trifluoromethyl)-1,2,4-oxadiazol-3-yl]thiophen-2-yl}methyl)pyridin-2-amine] |
| > 10000 | > 10000 | > 10000 | ≤ 10000 | > 10000 | FC(F)(F)c1nc(-c2ccc(CN(c3cnccn3)c3cc(-c4ccccn4)cnn3)s2)no1 [Example GM, N-(Pyrazin-2-yl)-5-(pyridin-2-yl)-N-({5-[5-(trifluoromethyl)-1,2,4-oxadiazol-3-yl]thiophen-2-yl}methyl)pyridazin-3-amine] |
